Results from publication PMC6792352, “Limited Chemical Structural Diversity Found to Modulate Thyroid Hormone Receptor in the Tox21 Chemical Library” (Environmental Health Perspectives, 2019).
Structures can show the parent of a compound that is named as a salt. Where two headings read alike, the source gives them in different places.

Columns and labels:
[1] = Global cytotoxicity: eighteen Tox21 cell viability assays; format: cell-based
[2] = tested on: Tox21 cell viability assays (different cell types); assay: as above; format: cell-based
in vitro [3] = details: rat
in vitro [4] = details: rat, gh3-tre-luc cells, AC50 (uM) modified / 1000
[5] = tested on: thyroid hormone receptor (endogenous TRα and TRβ); assay: GH3-TRE-Ag primary qHTS, luciferase reporter, agonist mode (TOX21_TR_LUC_GH3_Agonist, aeid 803); format: cell-based, rat; details: for TR_LUC_GH3_Agonist_EMAX (% Control): Table S5; for GH3-TRE-Ag AC50 hitc: hit call from tcpl
GH3-TRE-Luc cell line [6] = details: for TR_LUC_GH3_Antagonist_viability hitc: rat, 24 h
[7] = tested on: thyroid hormone receptor (endogenous TRα and TRβ); assay: GH3-TRE-Antag primary qHTS, luciferase reporter, antagonist mode with 1 nM T3 (TOX21_TR_LUC_GH3_Antagonist, aeid 804); format: cell-based, rat
GH3-TRE-Luc cell line [8] = assay: GH3-TRE-Via cell viability, CellTiter-Fluor (TOX21_TR_LUC_GH3_Antagonist_viability, aeid 805)
[9] = tested on: thyroid hormone receptor (TR); assay: Classification of TR actives across characterization assays (TR-Ag / RXR-Ag; TR model binary); details: for Categorization Code: TR agonist characterization; for Classification: TR-Ag = TR agonist, RXR-Ag = RXR agonist
Outline: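 GH3-TRE qHTS agonist, antagonist and viability modes over 8,305 compounds; 84 candidates rescreened in GH3-TRE-Ag, TRβ- and RXRα-UAS-bla HEK 293T one-hybrid assays, HEK293T viability, and TRα/TRβ coactivator recruitment. Actives classified binary after removing pharmaceuticals.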

[10] = tested on: thyroid hormone receptor (endogenous TRα and TRβ); assay: GH3-TRE-Ag-Followup confirmation (TOX21_TR_LUC_GH3_Agonist_Followup, aeid 2226); format: cell-based, rat; details: for AC50: confirmation, agonist mode, read-out: GH3-TRE-Ag-Followup AC50; for GH3-TRE-Ag-Followup hitc: hit call from tcpl
human RXRα = molecular target: T1, human RXRα (Homo sapiens, UniProt P19793); assay: RXRa-bla-Ag mammalian one-hybrid beta-lactamase assay (TOX21_TR_RXR_BLA_Agonist_Followup_ratio, aeid 2253); format: cell-based
T1 construct: host or cells: GeneBLAzer UAS-bla HEK 293T
T1 sequence (P19793 227-458 limits assumed): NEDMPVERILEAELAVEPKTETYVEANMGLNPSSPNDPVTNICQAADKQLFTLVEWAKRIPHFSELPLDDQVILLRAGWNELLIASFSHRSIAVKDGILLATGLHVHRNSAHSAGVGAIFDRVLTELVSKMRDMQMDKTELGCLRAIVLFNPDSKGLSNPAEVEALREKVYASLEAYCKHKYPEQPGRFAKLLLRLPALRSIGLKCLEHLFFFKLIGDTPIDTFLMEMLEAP

[11] = molecular target: T2, TRα ligand-binding domain (Homo sapiens, UniProt P10827); assay: TRa-coa LanthaScreen TR-FRET coactivator (SRC-2 peptide) recruitment, agonist (TOX21_TRA_COA_Agonist_Followup_ratio, aeid 2230); format: biochemical
T2 construct: the receptor LBDs expressed as glutathione S-transferase (GST) fusion proteins; purchased
T2 sequence (P10827 163-410 isoform P10827-2 limits assumed, other chains not shown): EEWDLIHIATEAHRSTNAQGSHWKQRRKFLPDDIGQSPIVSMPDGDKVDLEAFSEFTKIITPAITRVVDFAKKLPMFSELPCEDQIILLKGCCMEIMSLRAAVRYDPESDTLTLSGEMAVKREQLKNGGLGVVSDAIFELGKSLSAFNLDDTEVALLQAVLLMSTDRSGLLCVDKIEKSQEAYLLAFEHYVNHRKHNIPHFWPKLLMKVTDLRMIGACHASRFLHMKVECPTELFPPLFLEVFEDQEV

[12] = molecular target: T3, human TRβ ligand-binding domain (Homo sapiens, UniProt P10828); assay: TRb-coa LanthaScreen TR-FRET coactivator (SRC-2 peptide) recruitment, agonist (TOX21_TRB_COA_Agonist_Followup_ratio, aeid 2244); format: biochemical; parameters: host or cells: GeneBLAzer UAS-bla HEK 293T; details: read-out: EMax (% of Control) trb-coa-agonist-followup-1
T3 sequence (P10828 217-461 limits assumed): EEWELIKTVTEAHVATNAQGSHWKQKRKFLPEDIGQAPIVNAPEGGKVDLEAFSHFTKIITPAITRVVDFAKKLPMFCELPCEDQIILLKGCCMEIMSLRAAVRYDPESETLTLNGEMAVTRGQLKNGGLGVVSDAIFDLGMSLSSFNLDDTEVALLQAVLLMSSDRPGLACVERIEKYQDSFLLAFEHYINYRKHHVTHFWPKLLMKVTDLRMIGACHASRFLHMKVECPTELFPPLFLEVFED

[13] = molecular target: T3, human TRβ ligand-binding domain; assay: TRb-bla agonist mammalian one-hybrid beta-lactamase assay (TOX21_TRB_BLA_Agonist_Followup_ratio, aeid 2236); format: cell-based; parameters: host or cells: GeneBLAzer UAS-bla HEK 293T; details: read-out: EMax (% of Control) trb-bla-agonist-followup-1
[14] = antagonist candidates, inactive samples arbitrarily set to AC50=1,000 μM, read-out: GH3-TRE-Ag AC50
[15] = antagonist mode, 1 nM T3, read-out: GH3-TRE-Antag AC50

CC[C@H]1OC(=O)C[C@@H](O)[C@H](C)[C@@H](O[C@@H]2O[C@H](C)C[C@H](N(C)C)[C@H]2O)[C@@H](CC=O)C[C@@H](C)C(=O)/C=C/[C@]2(C)O[C@H]2[C@@H]1C [Rosaramicin]
AC50 [1]: 26.8 µM
Active in global cytotoxicity assays (%) [2]: 46.7%
AC50 at 24 h (in vitro [3]): 24.4 µM
CC50 at 24 h (in vitro [4]): 22.9 µM
AC50 [5, 14]: > 92 µM

CC[C@]12CCCN3CCc4c(n(c5ccccc45)C(=O)C1)[C@@H]32 [(-)-Eburnamonine]
CC50 at 24 h (in vitro [4]): 7.18 µM
AC50 (GH3-TRE-Luc cell line [6]): 7.18 µM
resp_max GH3-TRE-Via (GH3-TRE-Luc cell line [6]): 66.2
resp_max GH3-TRE-Antag ([7]; Table S8): 88.8
AC50 ([7]; Table S8, read-out: Average AC50 (uM) GH3-TRE-Antag): 6.85 µM

CC[C@@]1(O)C(=O)OCc2c1cc1n(c2=O)Cc2cc3c(CN(C)C)c(O)ccc3nc2-1 [Topotecan hydrochloride, reference compound]
cytotoxicity in GH3 viability assay (GH3-TRE-Luc cell line [6]): not considered active
activity in GH3-TRE antagonist mode assay [7]: complete inhibition of luciferase activity

CNCC[C@H](Oc1cccc2ccccc12)c1cccs1 [Duloxetine hydrochloride, reference compound]
AC50 at 24 h (in vitro [3]): 5.69 µM
AC50 ([5]; read-out: GH3-TRE-Ag AC50): > 92 µM
AC50 ([7]; read-out: GH3-TRE-Antag AC50, antagonist mode, 1 nM T3): 6.22 µM

CCC(=C(CC)c1ccc(O)cc1)c1ccc(O)cc1 [(Z,E)-Diethylstilbestrol, reference compound]
AC50 [5, 14]: > 92 µM
AC50 (GH3-TRE-Luc cell line [6]): 12.2 µM
AC50 [7, 15]: 17.1 µM

O=C(CO)[C@@H](O)[C@H](O)[C@@H](O)C(=O)O [Calcium 5-ketogluconate]
CC50 at 24 h (in vitro [4]): > 50 µM
modl_tp (top asymptote for the winning model) ([5]; Table S2, aeid 803): 2.81 percent_activity
resp_max (maximum response value) ([5]; Table S2, aeid 803, per sample): 2.734 percent_activity
hitc ([5]; Table S2, aeid 803, tcpl hit call): 0
hitc_modified ([5]; Table S2, aeid 803, final hitc after manual review): 0
AC50 ([5]; Table S2, aeid 803, inactive set to 1000, read-out: AC50 (uM) modified): > 50 µM
AC50 (GH3-TRE-Luc cell line [6]): > 50 µM
hitc (GH3-TRE-Luc cell line [6]): 0
hitc_modified (GH3-TRE-Luc cell line [6]): 0
resp_max (maximum response value) (GH3-TRE-Luc cell line [8]; Table S2, aeid 805): 18.832 percent_activity
hitc ([7]; Table S2, aeid 804): 0
hitc_modified ([7]; Table S2, aeid 804): 0
resp_max (maximum response value) ([7]; Table S2, aeid 804): 6.735 percent_activity
AC50 ([7]; Table S2, aeid 804, inactive set to 1000, read-out: AC50 (uM) modified): > 50 µM

CN(C)S(=O)(=O)N(SC(F)(Cl)Cl)c1ccccc1 [Dichlofluanid]
CC50 at 24 h (in vitro [4]): 1.43 µM
cytotoxicity in GH3 viability assay (GH3-TRE-Luc cell line [6]): loss of viability at virtually identical concentrations
activity in GH3-TRE antagonist mode assay [7]: active

N[C@@H](Cc1cc(I)c(Oc2ccc(O)c(I)c2)c(I)c1)C(=O)O [3,5,3ʹ-Triiodothyronine, reference compound]
AC50 [1]: > 92 µM
GLOBAL CYTOTOXICITY cytotox.median [2]: >92
GLOBAL CYTOTOXICITY cytotox.number_Active [2]: 0
AC50 at 24 h (in vitro [3]): 41.7 µM
TR_LUC_GH3_Antagonist_viability hitc (GH3-TRE-Luc cell line [6]): 1
Categorization Code [9]: TR-Ag
Classification [9]: TR-Ag

O=C(O)Cc1cc(I)c(Oc2ccc(O)c(I)c2)c(I)c1 [Tiratricol, reference compound]
AC50 [1]: 27 µM
GLOBAL CYTOTOXICITY cytotox.number_Active [2]: 4
GLOBAL CYTOTOXICITY cytotox.median ([2]; median over Tox21 viability assays): 27.0
AC50 at 24 h (in vitro [3]): > 92 µM
TR_LUC_GH3_Agonist_EMAX (% Control) [5]: 104.7 % Control
GH3-TRE-Ag AC50 hitc [5]: 1
TR_LUC_GH3_Antagonist_viability hitc (GH3-TRE-Luc cell line [6]): 0
Categorization Code [9]: TR-Ag
Classification [9]: TR-Ag
EMax (% of Control) gh3-tre-agonist-followup-1_agonist [10]: 105.1 % of Control
AC50 [10]: 0.0002 µM
GH3-TRE-Ag-Followup hitc [10]: 1

N=C1C=CC(=C(c2ccc(N)cc2)c2ccc(N)cc2)C=C1 [C.I. Basic Red 9 monohydrochloride]
AC50 [2]: 24.2 µM
Active in global cytotoxicity assays (%) [2]: 66.7%
CC50 at 24 h (in vitro [4]): 8.8 µM
AC50 [5, 14]: > 92 µM
AC50 (GH3-TRE-Luc cell line [6]): 8.8 µM
AC50 [7, 15]: 5.15 µM

CCOC(=O)C1=C(COCCN)NC(C)=C(C(=O)OC)C1c1ccccc1Cl (stereo not drawn) [Amlodipine besylate, reference compound]
AC50 at 24 h (in vitro [3]): 2.15 µM
AC50 [5, 14]: > 92 µM
AC50 [7, 15]: 4.56 µM

COc1cc(C)c(/C=C/C(C)=C/C=C/C(C)=C/C(=O)O)c(C)c1C [Acitretin, reference compound]
AC50 ([1]; median over 18 Tox21 cell viability assays (Judson et al. 2016, invitrodb_v2), read-out: Global cytotoxicity AC50 median): > 92 µM
GLOBAL CYTOTOXICITY cytotox.median [2]: >92
GLOBAL CYTOTOXICITY cytotox.number_Active [2]: 0
AC50 at 24 h (in vitro [3]): > 92 µM
EMax (% of Control) gh3-tre-agonist [5]: 24.4 % of Control
GH3-TRE-Ag AC50 hitc [5]: 1
AC50 (human RXRα; HEK 293T one-hybrid, agonist mode, inactive set to 1,000, read-out: RXRa-bla-Ag AC50): 0.564 µM
tr-followup-rxr-bla-agonist-1 hitc (human RXRα; hit call from tcpl): 1
Emax (human RXRα; read-out: EMax (% of Control) tr-followup-rxr-bla-agonist-1): 105%
Categorization Code [9]: RXR-Ag
Classification [9]: RXR-Ag
AC50 ([11]; cell-free coactivator recruitment, read-out: TRa-coa-Ag AC50): > 92 µM
TRa-coa hitc ([11]; hit call from tcpl, agonist): 0
Emax ([11]; read-out: EMax (% of Control) tra-coa-agonist-followup-1): 3.4%
Emax [12]: 4.8%
EMax (% of Control) gh3-tre-agonist-followup-1_agonist [10]: 79.4 % of Control
AC50 [10]: 0.94 µM
GH3-TRE-Ag-Followup hitc [10]: 1
Emax [13]: 4.1%
TR_LUC_GH3_Antagonist_viability hitc (GH3-TRE-Luc cell line [8]; hit call from tcpl): 0

COC(=O)C1=C(C)NC(C)=C(C(=O)OCCN2CCN(C(c3ccccc3)c3ccccc3)CC2)C1c1cccc([N+](=O)[O-])c1 (stereo not drawn) [Manidipine dihydrochloride]
AC50 [2]: 18.6 µM
Active in global cytotoxicity assays (%) [2]: 28.8%
CC50 at 24 h (in vitro [4]): 9.06 µM
AC50 [5, 14]: > 92 µM
AC50 (GH3-TRE-Luc cell line [6]): 9.06 µM
AC50 [7, 15]: 7.4 µM
